# Laboratory results reported in ChEMBL document CHEMBL3745631, “Discovery of highly potent and selective Bruton's tyrosine kinase inhibitors: Pyridazinone analogs with improved metabolic stability” (Bioorg Med Chem Lett, 2016).
# What was measured:
# [1] = target: Dual specificity protein kinase CLK3 (Homo sapiens) (UniProt P49761); assay: Inhibition of CLK3 (unknown origin) at 1 uM
# [2] = target: RAC-beta serine/threonine-protein kinase (Homo sapiens) (UniProt P31751); assay: Inhibition of AKT2 (unknown origin) at 1 uM
# [3] = target: Dual specificity protein kinase CLK2 (Homo sapiens) (UniProt P49760); assay: Inhibition of CLK2 (unknown origin) at 1 uM
# [4] = target: Calcium/calmodulin-dependent protein kinase type II subunit beta (Homo sapiens) (UniProt Q13554); assay: Inhibition of CaMK2 beta (unknown origin) at 1 uM
# [5] = target: Casein kinase I isoform gamma-1 (Homo sapiens) (UniProt Q9HCP0); assay: Inhibition of CK1 gamma1 (unknown origin) at 1 uM
# [6] = target: Serine/threonine-protein kinase pim-1 (Homo sapiens) (UniProt P11309); assay: Inhibition of PIM1 (unknown origin) at 1 uM
# [7] = target: Serine/threonine-protein kinase PLK3 (Homo sapiens) (UniProt Q9H4B4); assay: Inhibition of PLK3 (unknown origin) at 1 uM
# [8] = target: Mitogen-activated protein kinase 8 (Homo sapiens) (UniProt P45983); assay: Inhibition of JNK1 alpha1 (unknown origin) at 1 uM
# [9] = target: G protein-coupled receptor kinase 3 (Homo sapiens) (UniProt P35626); assay: Inhibition of GRK3 (unknown origin) at 1 uM
# [10] = target: Serine/threonine-protein kinase NLK (Homo sapiens) (UniProt Q9UBE8); assay: Inhibition of NLK (unknown origin) at 1 uM
# [11] = target: Protein kinase C eta type (Homo sapiens) (UniProt P24723); assay: Inhibition of PKCeta (unknown origin) at 1 uM
# [12] = target: Serine/threonine-protein kinase MRCK alpha (Homo sapiens) (UniProt Q5VT25); assay: Inhibition of MRCK alpha (unknown origin) at 1 uM
# [13] = target: Maternal embryonic leucine zipper kinase (Homo sapiens, UniProt Q14680); assay: Inhibition of MELK (unknown origin)
# [14] = target: Bone morphogenetic protein receptor type-1A (Homo sapiens) (UniProt P36894); assay: Inhibition of BMPR1A (unknown origin) at 1 uM
# [15] = target: Vascular endothelial growth factor receptor 1 (Homo sapiens) (UniProt P17948); assay: Inhibition of Flt1 (unknown origin) at 1 uM
# [16] = target: Tyrosine-protein kinase ZAP-70 (Homo sapiens) (UniProt P43403); assay: Inhibition of ZAP-70 (unknown origin) at 1 uM
# [17] = target: Aurora kinase B (Homo sapiens) (UniProt Q96GD4); assay: Inhibition of AuroraB (unknown origin) at 1 uM
# [18] = target: MAP kinase-interacting serine/threonine-protein kinase 2 (Homo sapiens) (UniProt Q9HBH9); assay: Inhibition of MKNK2 (unknown origin) at 1 uM
# [19] = target: Protein kinase C delta type (Homo sapiens) (UniProt Q05655); assay: Inhibition of PKCdelta (unknown origin) at 1 uM
# [20] = target: Rho-associated protein kinase 1 (Homo sapiens) (UniProt Q13464); assay: Inhibition of ROCK1 (unknown origin) at 1 uM
# [21] = target: MAP kinase-interacting serine/threonine-protein kinase 1 (Homo sapiens) (UniProt Q9BUB5); assay: Inhibition of MKNK1 (unknown origin) at 1 uM
# [22] = target: Epidermal growth factor receptor (Homo sapiens) (UniProt P00533); assay: Inhibition of EGFR (unknown origin) at 1 uM
# [23] = target: Mitogen-activated protein kinase 13 (Homo sapiens) (UniProt O15264); assay: Inhibition of p38 delta (unknown origin) at 1 uM
# Homo sapiens = species: Homo sapiens; assay: Inhibition of PKA (unknown origin) at 1 uM
# [24] = target: RAC-alpha serine/threonine-protein kinase (Homo sapiens) (UniProt P31749); assay: Inhibition of AKT1 (unknown origin) at 1 uM
# [25] = target: Serine/threonine-protein kinase 17A (Homo sapiens) (UniProt Q9UEE5); assay: Inhibition of DRAK1 (unknown origin) at 1 uM
# [26] = target: SRSF protein kinase 2 (Homo sapiens) (UniProt P78362); assay: Inhibition of SRPK2 (unknown origin) at 1 uM
# Monocyte = assay: Inhibition of IC-induced IL-1beta release in human monocytes
# [27] = target: Serine/threonine-protein kinase PLK1 (Homo sapiens) (UniProt P53350); assay: Inhibition of PLK1 (unknown origin) at 1 uM
# [28] = target: Myosin light chain kinase, smooth muscle (Homo sapiens) (UniProt Q15746); assay: Inhibition of MYLK(smMLCK) (unknown origin) at 1 uM
# [29] = target: Ribosomal protein S6 kinase alpha-3 (Homo sapiens) (UniProt P51812); assay: Inhibition of Rsk2 (unknown origin) at 1 uM
# [30] = target: Serine/threonine-protein kinase 25 (Homo sapiens) (UniProt O00506); assay: Inhibition of YSK1 (unknown origin) at 1 uM
# [31] = target: TGF-beta-activated kinase 1 and MAP3K7-binding protein 1 (Homo sapiens) (UniProt Q15750); assay: Inhibition of TAK1-TAB1 (unknown origin) at 1 uM
# Liver microsome = assay: Intrinsic clearance in human liver microsomes at 1 uM by LC-MS/MS analysis in presence of NADPH; type: ADME
# [32] = target: Phosphorylase b kinase gamma catalytic chain, skeletal muscle/heart isoform (Homo sapiens) (UniProt Q16816); assay: Inhibition of PhK gamma1 (unknown origin) at 1 uM
# [33] = target: Serine/threonine-protein kinase B-raf (Homo sapiens) (UniProt P15056); assay: Inhibition of B-Raf (unknown origin) at 1 uM
# [34] = target: Activated CDC42 kinase 1 (Homo sapiens) (UniProt Q07912); assay: Inhibition of TNK2 (unknown origin) at 1 uM
# [35] = target: Mitogen-activated protein kinase 1 (Homo sapiens) (UniProt P28482); assay: Inhibition of ERK2 (unknown origin) at 1 uM
# [36] = test system: Epidermal growth factor receptor (Homo sapiens), P00533 [L858R,T790M]; assay: Inhibition of EGFR T790M,L858R mutant (unknown origin) at 1 uM; type: protein assay
# [37] = target: Tyrosine-protein kinase Fgr (Homo sapiens, UniProt P09769); assay: Inhibition of FGR (unknown origin) at 1 uM
# [38] = target: Tyrosine-protein kinase Lyn (Homo sapiens) (UniProt P07948); assay: Inhibition of LYN (unknown origin) at 1 uM
# [39] = target: Mitogen-activated protein kinase 14 (Homo sapiens) (UniProt Q16539); assay: Inhibition of p38alpha (unknown origin) at 1 uM
# [40] = target: Glycogen synthase kinase-3 alpha (Homo sapiens) (UniProt P49840); assay: Inhibition of GSK3 alpha (unknown origin) at 1 uM
# [41] = target: Ephrin type-B receptor 1 (Homo sapiens) (UniProt P54762); assay: Inhibition of EphB1 (unknown origin) at 1 uM
# [42] = target: Serine/threonine-protein kinase WNK2 (Homo sapiens) (UniProt Q9Y3S1); assay: Inhibition of WNK2 (unknown origin) at 1 uM
# Sequence of TGF-beta-activated kinase 1 and MAP3K7-binding protein 1 (Homo sapiens) (Q15750 whole entry): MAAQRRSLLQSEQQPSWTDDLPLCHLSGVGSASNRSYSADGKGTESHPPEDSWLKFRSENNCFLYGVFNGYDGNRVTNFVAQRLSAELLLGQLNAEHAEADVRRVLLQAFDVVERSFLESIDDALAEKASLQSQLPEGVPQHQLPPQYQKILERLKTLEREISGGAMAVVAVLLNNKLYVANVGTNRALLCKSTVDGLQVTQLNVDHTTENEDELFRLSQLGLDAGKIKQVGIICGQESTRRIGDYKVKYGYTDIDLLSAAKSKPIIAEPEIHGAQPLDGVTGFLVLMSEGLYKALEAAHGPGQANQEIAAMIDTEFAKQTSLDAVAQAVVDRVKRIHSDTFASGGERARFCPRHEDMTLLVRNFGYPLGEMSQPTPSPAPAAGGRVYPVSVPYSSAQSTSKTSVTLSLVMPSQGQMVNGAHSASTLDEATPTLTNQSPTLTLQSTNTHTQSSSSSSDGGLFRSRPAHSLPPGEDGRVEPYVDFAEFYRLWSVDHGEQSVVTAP
# Sequence of Mitogen-activated protein kinase 1 (Homo sapiens) (P28482 whole entry): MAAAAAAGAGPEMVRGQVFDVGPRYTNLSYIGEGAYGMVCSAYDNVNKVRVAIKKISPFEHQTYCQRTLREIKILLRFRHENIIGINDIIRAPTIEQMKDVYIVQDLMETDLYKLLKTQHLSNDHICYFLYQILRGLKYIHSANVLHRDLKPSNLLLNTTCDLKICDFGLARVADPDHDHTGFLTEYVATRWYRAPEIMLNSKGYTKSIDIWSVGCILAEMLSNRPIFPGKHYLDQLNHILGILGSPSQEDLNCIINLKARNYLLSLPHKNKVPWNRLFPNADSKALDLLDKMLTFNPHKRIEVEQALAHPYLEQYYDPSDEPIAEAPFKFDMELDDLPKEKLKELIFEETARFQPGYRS
# Sequence of Glycogen synthase kinase-3 alpha (Homo sapiens) (P49840 2-483 limits assumed): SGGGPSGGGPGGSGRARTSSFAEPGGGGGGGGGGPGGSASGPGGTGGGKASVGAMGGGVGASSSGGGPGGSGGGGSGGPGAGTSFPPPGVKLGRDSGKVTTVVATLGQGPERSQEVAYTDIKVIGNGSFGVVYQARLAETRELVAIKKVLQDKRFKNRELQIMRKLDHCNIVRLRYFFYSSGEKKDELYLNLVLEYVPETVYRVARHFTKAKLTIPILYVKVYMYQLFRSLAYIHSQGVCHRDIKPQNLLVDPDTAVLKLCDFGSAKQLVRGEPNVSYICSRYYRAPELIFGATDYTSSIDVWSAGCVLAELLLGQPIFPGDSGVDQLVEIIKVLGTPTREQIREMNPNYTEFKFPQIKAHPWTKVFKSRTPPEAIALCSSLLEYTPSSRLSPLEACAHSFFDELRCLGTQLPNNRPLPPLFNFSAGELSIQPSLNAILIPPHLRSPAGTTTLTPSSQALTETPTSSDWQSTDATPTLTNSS
# Sequence of Serine/threonine-protein kinase pim-1 (Homo sapiens) (P11309 whole entry, looked up): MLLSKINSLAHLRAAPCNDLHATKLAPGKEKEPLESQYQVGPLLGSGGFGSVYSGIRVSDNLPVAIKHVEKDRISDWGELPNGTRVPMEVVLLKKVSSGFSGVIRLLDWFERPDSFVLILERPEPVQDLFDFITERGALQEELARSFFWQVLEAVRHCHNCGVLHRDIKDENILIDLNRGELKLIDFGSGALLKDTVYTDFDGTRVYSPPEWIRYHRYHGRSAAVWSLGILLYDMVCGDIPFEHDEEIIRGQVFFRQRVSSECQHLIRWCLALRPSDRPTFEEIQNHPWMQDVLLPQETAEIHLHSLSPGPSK
# Sequence of MAP kinase-interacting serine/threonine-protein kinase 2 (Homo sapiens) (Q9HBH9 whole entry, looked up): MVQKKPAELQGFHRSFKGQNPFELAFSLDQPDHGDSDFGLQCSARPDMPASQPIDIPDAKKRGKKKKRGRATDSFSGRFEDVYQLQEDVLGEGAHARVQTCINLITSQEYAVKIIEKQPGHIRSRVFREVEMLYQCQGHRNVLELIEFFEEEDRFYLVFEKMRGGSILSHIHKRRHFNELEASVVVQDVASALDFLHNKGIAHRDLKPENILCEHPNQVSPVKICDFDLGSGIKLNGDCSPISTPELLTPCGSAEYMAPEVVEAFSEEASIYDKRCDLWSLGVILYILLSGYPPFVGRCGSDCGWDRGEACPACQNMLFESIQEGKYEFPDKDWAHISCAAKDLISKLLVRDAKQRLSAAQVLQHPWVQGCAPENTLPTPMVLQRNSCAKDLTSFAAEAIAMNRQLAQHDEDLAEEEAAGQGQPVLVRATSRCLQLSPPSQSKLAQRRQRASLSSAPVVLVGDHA
# Sequence of Protein kinase C delta type (Homo sapiens) (Q05655 whole entry, looked up): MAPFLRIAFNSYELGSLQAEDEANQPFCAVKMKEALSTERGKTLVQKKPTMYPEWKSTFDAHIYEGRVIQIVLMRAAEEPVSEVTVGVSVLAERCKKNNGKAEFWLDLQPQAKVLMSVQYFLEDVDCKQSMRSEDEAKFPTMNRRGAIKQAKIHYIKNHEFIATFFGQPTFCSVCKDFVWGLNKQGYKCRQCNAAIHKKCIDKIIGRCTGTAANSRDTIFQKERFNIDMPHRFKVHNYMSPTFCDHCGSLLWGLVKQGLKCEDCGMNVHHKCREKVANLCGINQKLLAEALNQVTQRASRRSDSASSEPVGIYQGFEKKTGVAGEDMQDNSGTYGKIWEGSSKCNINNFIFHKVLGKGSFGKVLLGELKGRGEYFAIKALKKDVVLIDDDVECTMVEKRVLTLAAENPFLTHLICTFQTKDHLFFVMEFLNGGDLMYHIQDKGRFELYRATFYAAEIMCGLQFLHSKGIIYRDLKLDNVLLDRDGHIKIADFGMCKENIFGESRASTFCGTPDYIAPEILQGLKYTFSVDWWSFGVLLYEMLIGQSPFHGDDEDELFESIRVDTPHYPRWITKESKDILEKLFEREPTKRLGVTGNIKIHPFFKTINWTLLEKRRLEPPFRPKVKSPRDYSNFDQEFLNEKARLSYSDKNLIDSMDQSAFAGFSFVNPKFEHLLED
# Sequence of Serine/threonine-protein kinase PLK1 (Homo sapiens) (P53350 whole entry): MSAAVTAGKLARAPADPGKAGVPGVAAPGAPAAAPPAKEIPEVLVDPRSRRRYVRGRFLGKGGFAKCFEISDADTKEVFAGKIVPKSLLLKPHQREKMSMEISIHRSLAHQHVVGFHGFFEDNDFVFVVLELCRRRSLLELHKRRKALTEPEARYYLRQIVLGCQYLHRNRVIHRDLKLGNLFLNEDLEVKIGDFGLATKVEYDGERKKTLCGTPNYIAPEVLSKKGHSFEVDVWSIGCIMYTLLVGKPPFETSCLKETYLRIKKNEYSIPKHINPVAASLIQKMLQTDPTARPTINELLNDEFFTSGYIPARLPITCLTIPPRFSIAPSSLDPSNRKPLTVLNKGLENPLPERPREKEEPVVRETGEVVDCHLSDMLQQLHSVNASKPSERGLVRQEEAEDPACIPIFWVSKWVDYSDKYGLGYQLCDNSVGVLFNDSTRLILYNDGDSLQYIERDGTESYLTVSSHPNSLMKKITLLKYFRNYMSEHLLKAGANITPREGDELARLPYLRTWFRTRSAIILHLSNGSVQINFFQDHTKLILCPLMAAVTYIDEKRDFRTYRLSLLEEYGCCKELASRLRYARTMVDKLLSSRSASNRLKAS
# Sequence of Epidermal growth factor receptor (Homo sapiens) (P00533 whole entry): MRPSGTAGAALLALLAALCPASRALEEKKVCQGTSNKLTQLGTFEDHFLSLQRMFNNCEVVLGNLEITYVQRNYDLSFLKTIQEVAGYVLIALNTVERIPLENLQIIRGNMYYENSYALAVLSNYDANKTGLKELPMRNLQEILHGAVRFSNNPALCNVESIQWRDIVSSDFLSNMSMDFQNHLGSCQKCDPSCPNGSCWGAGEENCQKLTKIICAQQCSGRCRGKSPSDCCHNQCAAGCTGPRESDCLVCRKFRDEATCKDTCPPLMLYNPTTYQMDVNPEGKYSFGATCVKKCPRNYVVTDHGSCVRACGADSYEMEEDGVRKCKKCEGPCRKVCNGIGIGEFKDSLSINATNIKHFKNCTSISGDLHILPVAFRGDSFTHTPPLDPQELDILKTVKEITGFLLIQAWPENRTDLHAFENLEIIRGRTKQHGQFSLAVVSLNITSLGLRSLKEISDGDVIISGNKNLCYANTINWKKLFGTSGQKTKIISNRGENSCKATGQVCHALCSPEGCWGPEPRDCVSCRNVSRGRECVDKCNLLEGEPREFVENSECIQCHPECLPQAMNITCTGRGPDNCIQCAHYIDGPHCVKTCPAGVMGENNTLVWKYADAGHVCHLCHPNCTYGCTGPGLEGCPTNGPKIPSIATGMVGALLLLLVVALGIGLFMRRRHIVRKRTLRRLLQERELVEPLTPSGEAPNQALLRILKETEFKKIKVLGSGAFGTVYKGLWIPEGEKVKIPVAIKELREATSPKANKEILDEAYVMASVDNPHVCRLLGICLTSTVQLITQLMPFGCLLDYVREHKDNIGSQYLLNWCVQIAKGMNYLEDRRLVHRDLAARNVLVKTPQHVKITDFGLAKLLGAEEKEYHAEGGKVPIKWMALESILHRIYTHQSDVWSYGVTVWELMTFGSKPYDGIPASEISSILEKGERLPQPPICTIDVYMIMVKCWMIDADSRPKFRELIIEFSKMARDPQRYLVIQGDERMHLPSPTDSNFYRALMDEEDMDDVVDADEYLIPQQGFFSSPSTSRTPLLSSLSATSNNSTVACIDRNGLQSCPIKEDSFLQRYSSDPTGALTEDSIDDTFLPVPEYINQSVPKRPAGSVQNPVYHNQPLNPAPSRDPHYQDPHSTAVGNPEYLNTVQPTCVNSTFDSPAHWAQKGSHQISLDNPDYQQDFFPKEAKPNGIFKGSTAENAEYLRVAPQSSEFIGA
# Sequence of Phosphorylase b kinase gamma catalytic chain, skeletal muscle/heart isoform (Homo sapiens) (Q16816 whole entry, looked up, canonical isoform): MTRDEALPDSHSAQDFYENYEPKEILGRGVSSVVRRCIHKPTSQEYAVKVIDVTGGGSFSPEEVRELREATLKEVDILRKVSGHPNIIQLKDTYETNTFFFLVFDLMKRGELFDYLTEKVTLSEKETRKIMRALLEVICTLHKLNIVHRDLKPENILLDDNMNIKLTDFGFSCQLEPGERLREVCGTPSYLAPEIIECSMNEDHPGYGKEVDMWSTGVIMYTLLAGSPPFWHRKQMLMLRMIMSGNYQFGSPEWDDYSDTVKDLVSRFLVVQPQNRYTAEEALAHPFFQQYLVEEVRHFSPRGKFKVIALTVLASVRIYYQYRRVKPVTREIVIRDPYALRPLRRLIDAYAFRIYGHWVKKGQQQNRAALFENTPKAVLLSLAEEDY
compound,measurement,setting,value
Cc1c(-c2cc(Nc3cc4n(n3)CCN(C)C4)c(=O)[nH]n2)ccc(F)c1NC(=O)c1cc2ccccc2s1,inhibition,[1],2.9%
same,inhibition,[2],-0.3%
same,inhibition,[3],-7%
same,inhibition,[4],-2.2%
same,inhibition,[5],6.2%
same,inhibition,[6],4.5%
same,inhibition,[7],14.1%
same,inhibition,[8],8.7%
same,inhibition,[9],0.7%
same,inhibition,[10],-4.8%
same,inhibition,[11],-8%
same,inhibition,[12],-4.5%
same,IC50,[13],> 10 µM
same,inhibition,[14],-4.5%
same,inhibition,[15],-0.7%
same,inhibition,[16],8.1%
same,inhibition,[17],-0.4%
same,inhibition,[18],-0.2%
same,inhibition,[19],-8%
same,inhibition,[20],-4.8%
same,inhibition,[21],-2.8%
same,inhibition,[22],-5.5%
same,inhibition,[23],8.6%
same,inhibition,Homo sapiens,-4.8%
same,inhibition,[24],2.5%
same,inhibition,[25],7.6%
same,inhibition,[26],-2%
same,EC50,Monocyte,0.022 µM
same,inhibition,[27],6%
same,inhibition,[28],-0.8%
same,inhibition,[29],1.9%
same,inhibition,[30],-3.4%
same,inhibition,[31],13.7%
same,CLH,Liver microsome,0.36 L/h/kg
same,inhibition,[32],-1.2%
same,inhibition,[33],0.6%
same,inhibition,[34],15.9%
same,inhibition,[35],6.8%
same,inhibition,[36],6.1%
same,inhibition,[37],69.8%
same,inhibition,[38],23.1%
same,inhibition,[39],1%
same,inhibition,[40],7.5%
same,inhibition,[41],3.2%
same,inhibition,[42],-7.5%
